Common to all, as to format: in vivo
The subject of one series is Chenopodium album. In words: greenhouse herbicidal test, post-emergence treatment. Particulars: 0.125 or 0.0625 kg/ha (of a.s.), Chenopodium album (lambsquarters). From the text:
(§1) The culture containers used were plastic flowerpots containing loamy soil with approximately 3.0% of humus as the substrate. The seeds of the test plants were sown separately for each species.
(§2) For the post-emergence treatment, the test plants were first grown to a plant height of 3 to 15 cm, depending on the plant habit, and only then treated with the active compounds which had been suspended or emulsified in water. The test plants for this purpose were either sown directly and grown in the same containers, or they were first grown separately as seedlings and transplanted into the test containers a few days prior to treatment. The rate of application for the post-emergence treatment was 0.125.or 0.0625 kg/ha of a.s. (active substance).
(§3) Depending on the species, the plants were kept at 10-25° C. or 20-35° C. The test period extended over 2 to 4 weeks. During this time, the plants were tended, and their response to the individual treatments was evaluated.
(§4) Evaluation was carried out using a scale from 0 to 100. 100 means no emergence of the plants, or complete destruction of at least the aerial parts, and 0 means no damage, or normal course of growth.
(§5) The plants used in the greenhouse experiments belonged to the following species: […]

The next series deals with Echinochloa crus galli. The series is described as above. Particulars: 0.125 or 0.0625 kg/ha (of a.s.), Echinochloa crus galli (barnyardgrass).
Description: as §1, §2, §3, §4, §5

The next series relates to Sinapis alba. Described as above. Particulars: 0.125 or 0.0625 kg/ha (of a.s.), Sinapis alba (white mustard).
Description: as §1, §2, §3, §4, §5

In another series the test system is Zea mays. In words: greenhouse test, post-emergence treatment, crop tolerance. Particulars: 0.125 or 0.0625 kg/ha (of a.s.).
Description: as §1, §2, §3, §4, §5

Take `CCON=Cc1c(S(C)(=O)=O)ccc(C(=O)C2C(=O)CC(C)(C)CC2=O)c1Cl` [Compound 2.07, 2-(2-Chloro-3-ethoxyiminomethyl-4-methylsulfonylbenzoyl)-5,5-dimethyl-1,3-cyclohexanedione]: the “herbicidal activity against harmful plants” value in the series with Chenopodium album, in the series with Echinochloa crus galli and with Sinapis alba was “very good activity” each time. Besides, the “tolerance in crop plant maize” value with Zea mays is listed as “well tolerated”.
